Measured values from US9040528B2, “Chemical compounds 542” (AstraZeneca AB, priority 2008, dated 2015).

Molecular target: Escherichia coli DNA gyrase A/B tetramer (Escherichia coli (strain K12), UniProt P0AES4+P0AES6)
Assay: DNA gyrase supercoiling activity fluorescence polarisation assay
Assay type: biochemical
Details: not given
Summary of the method: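 Supercoiling reactions quenched with 40 nM 5′-BODIPY-FL triplex-forming oligonucleotide probe in pH 3.5 NaCl/sodium acetate buffer; after 60 min, fluorescence anisotropy read (ex 485/em 535 nm). IC50 by nonlinear regression, normalised to 0.8% DMSO (100% activity) and 5 μM ciprofloxacin (0% activity).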

`Cc1noc2c(F)c3c(cc12)CC1(C(=O)NC(=O)NC1=O)[C@H]1[C@H](C)C[C@H](C)CN31` (relative stereo) [Example 77, (2S,4R,4aR)-rel-11-fluoro-2,4,8-trimethyl-1,2,3,4,4a,6-hexahydro-1′H-spiro[isoxazolo[4,5-g]pyrido[1,2-a]quinoline-5,5′-pyrimidine]-2′,4′,6′(3′H)-trione] showed an IC50 of 300 nM.

Same assay, conditions: 5 nM enzyme, relaxed plasmid, 0.3 mM ATP, ambient temperature; read-out: E. coli DNA gyrase supercoiling IC50

`C[C@@H]1CN2c3c(cc4c(-c5cncn5C)noc4c3F)CC3(C(=O)NC(=O)NC3=O)[C@H]2[C@H](C)O1` (relative stereo) [Example 70, (2R,4S,4aS)-rel-11-fluoro-2,4-dimethyl-8-(1-methyl-1H-imidazol-5-yl)-1,2,4,4a-tetrahydro-2′H,6H-spiro[1,4-oxazino[4,3-a][1,2]oxazolo[4,5-g]quinoline-5,5′-pyrimidine]-2′,4′,6′(1′H,3′H)-trione] and `C[C@@H]1CN2c3c(cc4c(-c5cncs5)noc4c3F)CC3(C(=O)NC(=O)NC3=O)[C@H]2[C@H](C)O1` (relative stereo) [Example 98, (2R,4S,4aS)-rel-11-fluoro-2,4-dimethyl-8-(thiazol-5-yl)-2,4,4a,6-tetrahydro-1H,1′H-spiro[isoxazolo[4,5-g][1,4]oxazino[4,3-a]quinoline-5,5′-pyrimidine]-2′,4′,6′(3′H)-trione] are within 1.5-fold of each other in IC50: 500 nM for the first, 400 nM for the second.

`Cc1ncsc1-c1noc2c(F)c3c(cc12)CC1(C(=O)NC(=O)NC1=O)[C@@H]1[C@@H](C)O[C@@H](C)CN31` (relative stereo) [Example 71, (2R,4S,4aS)-rel-11-fluoro-2,4-dimethyl-8-(4-methyl-1,3-thiazol-5-yl)-1,2,4,4a-tetrahydro-2′H,6H-spiro[1,4-oxazino[4,3-a][1,2]oxazolo[4,5-g]quinoline-5,5′-pyrimidine]-2′,4′,6′(1′H,3′H)-trione] and `C[C@@H]1CN2c3c(cc4c(-c5scnc5C#N)noc4c3F)CC3(C(=O)NC(=O)NC3=O)[C@H]2[C@H](C)O1` (relative stereo) [Example 88, 5-[(2R,4S,4aS)-rel-11-fluoro-2,4-dimethyl-2′,4′,6′-trioxo-1,1′,2,3′,4,4′,4a,6′-octahydro-2′H,6H-spiro[1,4-oxazino[4,3-a][1,2]oxazolo[4,5-g]quinoline-5,5′-pyrimidin]-8-yl]-1,3-thiazole-4-carbonitrile] are within 1.5-fold of each other in IC50: 900 nM for the first, 1200 nM for the second.

`C[C@H]1CN2c3c(cc4c(-c5cccnn5)noc4c3F)CC3(C(=O)NC(=O)NC3=O)[C@@H]2[C@@H](C)O1` (relative stereo) [Example 73, (2R,4S,4aS)-rel-11-fluoro-2,4-dimethyl-8-(pyridazin-3-yl)-1,2,4,4a-tetrahydro-2′H,6H-spiro[1,4-oxazino[4,3-a][1,2]oxazolo[4,5-g]quinoline-5,5′-pyrimidine]-2′,4′,6′(1′H,3′H)-trione] and `C[C@@H]1CN2c3c(cc4c(-c5ccco5)noc4c3F)CC3(C(=O)NC(=O)NC3=O)[C@H]2[C@H](C)O1` (relative stereo) [Example 97, (2R,4S,4aS)-rel-11-fluoro-8-(furan-2-yl)-2,4-dimethyl-2,4,4a,6-tetrahydro-1H,1′H-spiro[isoxazolo[4,5-g][1,4]oxazino[4,3-a]quinoline-5,5′-pyrimidine]-2′,4′,6′(3′H)-trione] are within 1.5-fold of each other in IC50: 500 nM for the first, 700 nM for the second.

Compared with `Cc1nsc2c(F)c3c(cc12)CC1(C(=O)NC(=O)NC1=O)[C@H]1[C@H](C)O[C@H](C)CN31` (relative stereo) [Example 75, (2R,4S,4aS)-rel-11-fluoro-2,4,8-trimethyl-1,2,4,4a-tetrahydro-2′H,6H-spiro[1,4-oxazino[4,3-a][1,2]thiazolo[4,5-g]quinoline-5,5′-pyrimidine]-2′,4′,6′(1′H,3′H)-trione], `Cc1ccc(-c2noc3c(F)c4c(cc23)CC2(C(=O)NC(=O)NC2=O)[C@H]2[C@H](C)O[C@H](C)CN42)cn1` (relative stereo) [Example 91, (2R,4S,4aS)-rel-11-fluoro-2,4-dimethyl-8-(6-methylpyridin-3-yl)-2,4,4a,6-tetrahydro-1H,1′H-spiro[isoxazolo[4,5-g][1,4]oxazino[4,3-a]quinoline-5,5′-pyrimidine]-2′,4′,6′(3′H)-trione] is 9.5-fold higher in IC50: 200 nM for the first, 1900 nM for the second. The first is the more potent here.

`C[C@@H]1CN2c3c(cc4c(-c5nccnc5Cl)noc4c3F)CC3(C(=O)NC(=O)NC3=O)[C@H]2[C@H](C)O1` (relative stereo) [Example 78, (2R,4S,4aS)-rel-8-(3-chloropyrazin-2-yl)-11-fluoro-2,4-dimethyl-2,4,4a,6-tetrahydro-1H,1′H-spiro[isoxazolo[4,5-g][1,4]oxazino[4,3-a]quinoline-5,5′-pyrimidine]-2′,4′,6′(3′H)-trione] and `C[C@@H]1CN2c3c(cc4c(-c5cncc(Cl)n5)noc4c3F)CC3(C(=O)NC(=O)NC3=O)[C@H]2[C@H](C)O1` (relative stereo) [Example 79, (2R,4S,4aS)-rel-8-(6-chloropyrazin-2-yl)-11-fluoro-2,4-dimethyl-2,4,4a,6-tetrahydro-1H,1′H-spiro[isoxazolo[4,5-g][1,4]oxazino[4,3-a]quinoline-5,5′-pyrimidine]-2′,4′,6′(3′H)-trione] are the same in IC50: 800 nM for the first, 800 nM for the second.

`CSc1cnc(-c2noc3c(F)c4c(cc23)CC2(C(=O)NC(=O)NC2=O)[C@H]2[C@H](C)O[C@H](C)CN42)cn1` (relative stereo) [Example 80, (2R,4S,4aS)-rel-11-fluoro-2,4-dimethyl-8-(5-(methylthio)pyrazin-2-yl)-2,4,4a,6-tetrahydro-1H,1′H-spiro[isoxazolo[4,5-g][1,4]oxazino[4,3-a]quinoline-5,5′-pyrimidine]-2′,4′,6′(3′H)-trione] and `Cc1c2c(cc3c(-c4cnccn4)noc13)CC1(C(=O)NC(=O)NC1=O)[C@H]1[C@H](C)O[C@H](C)CN21` (relative stereo) [Example 101, (2R,4S,4aS)-rel-2,4,11-trimethyl-8-(pyrazin-2-yl)-1,2,4,4a-tetrahydro-2′H,6H-spiro[1,4-oxazino[4,3-a][1,2]oxazolo[4,5-g]quinoline-5,5′-pyrimidine]-2′,4′,6′(1′H,3′H)-trione] are within 1.5-fold of each other in IC50: 1700 nM for the first, 1400 nM for the second.

Going from `C[C@@H]1CN2c3c(cc4c(Cn5cncn5)noc4c3F)CC3(C(=O)NC(=O)NC3=O)[C@H]2[C@H](C)O1` (relative stereo) [Example 81, (2R,4S,4aS)-rel-8-((1H-1,2,4-triazol-1-yl)methyl)-11-fluoro-2,4-dimethyl-2,4,4a,6-tetrahydro-1H,1′H-spiro[isoxazolo[4,5-g][1,4]oxazino[4,3-a]quinoline-5,5′-pyrimidine]-2′,4′,6′(3′H)-trione] to `C[C@@H]1CN2c3c(cc4c(-c5ccncc5)noc4c3F)CC3(C(=O)NC(=O)NC3=O)[C@H]2[C@H](C)O1` (relative stereo) [Example 82, (2R,4S,4aS)-rel-11-fluoro-2,4-dimethyl-8-(pyridin-4-yl)-2,4,4a,6-tetrahydro-1H,1′H-spiro[isoxazolo[4,5-g][1,4]oxazino[4,3-a]quinoline-5,5′-pyrimidine]-2′,4′,6′(3′H)-trione], the IC50 falls from 3000 nM to 200 nM (15-fold).

First: C[C@@H]1CN2c3c(cc4c(-c5scnc5C(=O)N5CCOCC5)noc4c3F)CC3(C(=O)NC(=O)NC3=O)[C@H]2[C@H](C)O1 (relative stereo) [Example 85, (2R,4S,4aS)-rel-11-fluoro-2,4-dimethyl-8-[4-(morpholin-4-ylcarbonyl)-1,3-thiazol-5-yl]-1,2,4,4a-tetrahydro-2′H,6H-spiro[1,4-oxazino[4,3-a][1,2]oxazolo[4,5-g]quinoline-5,5′-pyrimidine]-2′,4′,6′(1′H,3′H)-trione]
Second: C[C@@H]1CN2c3c(cc4c(C(=O)N5CC(F)(F)C5)noc4c3F)CC3(C(=O)NC(=O)NC3=O)[C@H]2[C@H](C)O1 (relative stereo) [Example 95, (2R,4S,4aS)-rel-8-(3,3-difluoroazetidine-1-carbonyl)-11-fluoro-2,4-dimethyl-2,4,4a,6-tetrahydro-1H,1′H-spiro[isoxazolo[4,5-g][1,4]oxazino[4,3-a]quinoline-5,5′-pyrimidine]-2′,4′,6′(3′H)-trione]
The IC50 of the first is 57-fold higher: 17000 nM for the first, 300 nM for the second. The second is the more potent here.

Compared with `C[C@@H]1CN2c3c(cc4c(-c5ncc(C(=O)N(C)C)s5)noc4c3F)CC3(C(=O)NC(=O)NC3=O)[C@H]2[C@H](C)O1` (relative stereo) [Example 87, 2-[(2R,4S,4aS)-rel-11-fluoro-2,4-dimethyl-2′,4′,6′-trioxo-1,1′,2,3′,4,4′,4a,6′-octahydro-2′H,6H-spiro[1,4-oxazino[4,3-a][1,2]oxazolo[4,5-g]quinoline-5,5′-pyrimidin]-8-yl]-N,N-dimethyl-1,3-thiazole-5-carboxamide], `C[C@@H]1CN2c3c(cc4c(-c5ccccc5F)noc4c3F)CC3(C(=O)NC(=O)NC3=O)[C@H]2[C@H](C)O1` (relative stereo) [Example 99, (2R,4S,4aS)-rel-11-fluoro-8-(2-fluorophenyl)-2,4-dimethyl-2,4,4a,6-tetrahydro-1H,1′H-spiro[isoxazolo[4,5-g][1,4]oxazino[4,3-a]quinoline-5,5′-pyrimidine]-2′,4′,6′(3′H)-trione] is 17-fold lower in IC50: 6700 nM for the first, 400 nM for the second.

Compared with `C[C@@H]1CN2c3c(cc4c(-c5nccn5C)noc4c3Cl)CC3(C(=O)NC(=O)NC3=O)[C@H]2[C@H](C)O1` (relative stereo) [Example 89, (2R,4S,4aS)-rel-11-chloro-2,4-dimethyl-8-(1-methyl-1H-imidazol-2-yl)-1,2,4,4a-tetrahydro-2′H,6H-spiro[1,4-oxazino[4,3-a][1,2]oxazolo[4,5-g]quinoline-5,5′-pyrimidine]-2′,4′,6′(1′H,3′H)-trione], `C[C@@H]1CN2c3c(cc4c(C5CCOCC5)noc4c3F)CC3(C(=O)NC(=O)NC3=O)[C@H]2[C@H](C)O1` (relative stereo) [Example 100, (2R,4S,4aS)-rel-11-fluoro-2,4-dimethyl-8-(tetrahydro-2H-pyran-4-yl)-2,4,4a,6-tetrahydro-1H,1′H-spiro[isoxazolo[4,5-g][1,4]oxazino[4,3-a]quinoline-5,5′-pyrimidine]-2′,4′,6′(3′H)-trione] is 3.2-fold higher in IC50: 1300 nM for the first, 4100 nM for the second.
